Test results taken from EP4119128A1, “PHARMACEUTICAL COMPOSITION FOR THE ORAL ADMINISTRATION OF POORLY SOLUBLE DRUGS COMPRISING AN AMORPHOUS SOLID DISPERSION” (Dr. Falk Pharma GmbH, priority 2021, dated 2023).
Structures can show the parent of a compound that is named as a salt. Where two headings read alike, the source gives them in different places.

Experiments:
[1] = Two-stage biorelevant in vitro dissolution test (acid stage pH 2.0, buffer stage pH 7.0, non-sink conditions); assay type: physicochemical
Description: To characterize the in vitro performance of the gastro-resistant granules that contain the RhuDex® choline salt as an amorphous solid dispersion a predictive biorelevant dissolution method has been developed. The design of the method comprises a two-stage in vitro dissolution test that simulates the conditions of the gastrointestinal passage. In a first step the formulation is exposed to simulated gastric fluid where the enteric protection provided by the outer hypromellose succinate acetate layer should ensure that there is no premature drug substance release from the granules. The subsequent step simulates the condition of the upper intestine where the enteric polymer should immediately dissolve and where the drug substance release should start. The gastro-resistance and the release profile are measured by the amount of RhuDex® choline salt dissolved in the acid and buffer medium. The established test system relies on the use of standard media and buffer systems without the addition of any surfactants or bile acids. […] The extent of the spring and parachute effect should be measurable in the simulated intestinal fluid. The parameters of the biorelevant dissolution method are presented below. Summarizing the established conditions for testing the biorelevant dissolution of RhuDex® choline salt gastro-resistant granules, the studies are conducted under non-sink conditions as follows: […]

[2] = test system: monolayers formed by human colon carcinoma cell line Caco-2; experiment: Apparent permeation across Caco-2 cell monolayers; assay type: in vitro ADME; details: Caco-2 cell monolayers; 127 µg/ml
Protocol: (§1) The biorelevant dissolution profile of the embodiment positively affects the second relevant parameter predicting the compound's oral bioavailability, i.e. its permeability. As shown in apparent permeation studies across monolayers formed by human colon carcinoma cell line Caco-2 the spring and parachute effect observed for formulated RhuDex® choline salt also leads to a higher permeation rate when compared with its crystalline and unformulated counterpart. The permeation assays were performed using an apical buffer at a pH value of 7.0 and a basolateral buffer at a pH value of 7.4. The test concentration was set to 127 µg/ml and should represent a potential clinical dose of 31.75 mg RhuDex® choline salt administrered in a volume of 250 ml (i.e. 31.75 mg/250 ml = 0.127 mg/ml). With an apparent permeation value (Papp) of less than 1 (i.e. 0.12 x 10^-6 cm/s) the permeability of crystalline RhuDex® choline salt across Caco-2 cell monolayers must be classified as poor and a low bioavailability of unformulated drug substance can be estimated. However, the Papp value increased to 2.7 x 10^-6 cm/s when using an amorphous solid dispersion of RhuDex® choline salt in the same experiment indicating a remarkable shift from low to moderate permeability. This effect can be cleary attributed to the embodiment.

[3] = Apparent permeation across Caco-2 cell monolayers; assay type: in vitro ADME, human; details: human, Caco-2; apical buffer pH 7.0, basolateral buffer pH 7.4; test concentration 127 µg/ml
Protocol: as §1

[4] = Saturation solubility, shake-flask method, quantification by HPLC/UV; assay type: physicochemical; details: 0.01 N HCl, 37 °C, pH 2, simulated gastric fluid, thermodynamic from solid, 0.01 N HCl pH 2; 24 h at 37°C
[5] = as above; assay type: physicochemical; details: for solubility at 24 h: 37 °C, thermodynamic from solid
Protocol: The saturation solubility of RhuDex® choline salt determined at 37°C after 24 hours by HPLC/UV using the shake-flask method is at around or below 0.001 mg/mL when using standard media or buffers such as 0.1 N hydrochloric acid pH 1.2 and 50 mM phosphate buffer pH 7.0 or biorelevant media such as Fasted-State Simulated Intestinal Fluid (i.e. FaSSIF) pH 6.5 and Fed-State Simulated Intestinal Fluid (FeSSIF) pH 5.0.
When increasing the pH value above the pKa and beyond the physiological conditions (i.e. pH > 8), the opposite effect occurs as the molecule is transferred into its negatively charged and soluble ion. […] However, these enabling technologies are neither standard nor easily applicable as they directly affect the physical properties of the drug substance and thereby its thermodynamic stability. Therefore, there is an extremely high risk of failure associated with these technologies concluding that the drug substance cannot be further developed into a suitable, stable, bioavailable and commercially viable formulation. Table 2: Saturation solubility of RhuDex® choline salt in biorelevant media (shake-flask method, 24 h at 37°C, quantification by HPLC/UV)

[6] = Hygroscopicity of the drug substance; assay type: physicochemical
[7] = pKa value of the drug substance; assay type: physicochemical; details: free acid

| SMILES | amount in solution when presented in crystalline form ([1]; 0.001 mg/ml x 460 ml, buffer pH 7.0) [mg] | dose in solution when presented in crystalline form ([1]; calculated from solubility 0.001 mg/ml in 460 ml buffer pH 7.0, dose 31.75 mg) [%] | permeability classification [2] | Papp at 127 µg/ml [3] [×10⁻⁶ cm/s] | solubility at 24 h [4] [µg/mL] | biopharmaceutics classification system (BCS) class [5] | solubility at 24 h ([5]; 50 mM borate buffer, pH 9.5, aqueous buffer, 50 mM borate buffer, pH 9.5, read-out: solubility) [µg/mL] | solubility at 24 h ([5]; 50 mM phosphate buffer, pH 7, aqueous buffer, Phosphate buffer 50 mM, pH 7.0, 24 h at 37°C, read-out: Saturation solubility) [µg/mL] | solubility at 24 h ([5]; 50 mM phosphate buffer, pH 7, aqueous buffer, pH 7.0, read-out: solubility of the drug substance) [µg/mL] | solubility at 24 h ([5]; aqueous buffer, 37°C, 24 hours, shake-flask, 0.1 N hydrochloric acid pH 1.2, 50 mM phosphate buffer pH 7.0, FaSSIF pH 6.5, FeSSIF pH 5.0, read-out: saturation solubility) [µg/mL] | solubility at 24 h ([5]; FaSSIF, pH 6.5, fassif, FaSSIF, pH 6.5, 24 h at 37°C, read-out: Saturation solubility) [µg/mL] | solubility at 24 h ([5]; FeSSIF, pH 5, fessif, FeSSIF, pH 5.0, 24 h at 37°C, read-out: Saturation solubility) [µg/mL] | volume required to completely dissolve one dose ([5]; dose 31.75 mg, minimum solubility 0.001 mg/mL, physiologically relevant conditions) | solubility at 24 h ([5]; water, pH 9.9, water, in water, final pH value of the solution 9.9, read-out: solubility) [µg/mL] | hygroscopicity [6] | pKa [7] |
| --- | --- | --- | --- | --- | --- | --- | --- | --- | --- | --- | --- | --- | --- | --- | --- | --- |
| O=C(NCC(F)F)c1ccc(-n2[nH]c3c(nnc4c(F)cccc43)c2=O)cc1 [RhuDex® choline salt, N-(2,2-difluoroethyl)-4-(6-fluoro-3-oxo-1,3-dihydropyrazolo[4,3-c]cinnolin-2-yl)-benzamide] | 0.46 | 1.4 | poor | 0.12 | 0.1 | either Class II (low solubility/high permeability) or Class IV (low solubility/low permeability) | 1300 | 0.7 | ~1 | ≤ 1 | 1.1 | 0.1 | more than 30 L | ~10000 | only slightly hygroscopic | – |
| O=C(NCC(F)F)c1ccc(-n2[nH]c3c(nnc4c(F)cccc43)c2=O)cc1 [RhuDex® free acid, 4-(6-fluoro-3-oxo-1,3-dihydro-pyrazolo[4,3-c]cinnolin-2-yl)-N-(2,2-difluoro-ethyl)-benzamide] | – | – | – | – | – | – | – | – | – | – | – | – | – | – | – | 5.8 |
